Results on 13 compounds are retold here after ChEMBL document CHEMBL1255423, “Dinitroaniline activity in Toxoplasma gondii expressing wild-type or mutant alpha-tubulin” (Antimicrob Agents Chemother, 2010).

Type in all cases: functional, organism-based
Assay [1] relates to Toxoplasma gondii. Kind of assay: Antimicrobial activity against Toxoplasma gondii RH containing alpha1-tubulin V4L mutation infected in HFF cells by plaque assay.
In assay [2] the test system is Toxoplasma gondii. The assay can be described thus: Induction of parasite shape change Toxoplasma gondii RH infected in HFF cells at 0.25 uM by phase contrast microscopy.
Assay [3] concerns Toxoplasma gondii. Kind of assay: Antimicrobial activity against Toxoplasma gondii RH containing alpha1-tubulin I235V mutation infected in HFF cells by plaque assay.
Assay [4] deals with Toxoplasma gondii. The assay can be described thus: Induction of parasite microtubule disruption Toxoplasma gondii RH infected in HFF cells by antitubulin antibody staining.
For assay [5], the system named is Toxoplasma gondii. Kind of assay: Antimicrobial activity against Toxoplasma gondii RH containing alpha1-tubulin R243C mutation infected in HFF cells by plaque assay.
Assay [6] has as its system Toxoplasma gondii. Kind of assay: Antimicrobial activity against Toxoplasma gondii RH containing alpha1-tubulin H28Q mutation infected in HFF cells by plaque assay.
Assay [7] deals with Toxoplasma gondii. The assay can be described thus: Antimicrobial activity against Toxoplasma gondii RH infected in HFF cells by plaque assay.
Assay [8] has as its system Toxoplasma gondii. Kind of assay: Antimicrobial activity against Toxoplasma gondii RH containing alpha1-tubulin S6I mutation infected in HFF cells by plaque assay.
The subject of assay [9] is Toxoplasma gondii. Kind of assay: Antimicrobial activity against Toxoplasma gondii RH containing alpha1-tubulin I235T mutation infected in HFF cells by plaque assay.
The subject of assay [10] is Toxoplasma gondii. Kind of assay: Antimicrobial activity against Toxoplasma gondii RH containing alpha1-tubulin R243S mutation infected in HFF cells by plaque assay.
Assay [11] has as its system Toxoplasma gondii. Kind of assay: Antimicrobial activity against Toxoplasma gondii RH containing alpha1-tubulin F24H mutation infected in HFF cells by plaque assay.
Assay [12] concerns Toxoplasma gondii. Kind of assay: Antimicrobial activity against Toxoplasma gondii RH containing alpha1-tubulin I235L mutation infected in HFF cells by plaque assay.
The test system of assay [13] is Toxoplasma gondii. The assay can be described thus: Antimicrobial activity against Toxoplasma gondii RH containing alpha1-tubulin T239I mutation infected in HFF cells by plaque assay.
The test system of assay [14] is Toxoplasma gondii. Kind of assay: Antimicrobial activity against Toxoplasma gondii RH containing alpha1-tubulin L136F mutation infected in HFF cells by plaque assay.
Another assay has as its system Cryptosporidium parvum. Kind of assay: Antimicrobial activity against Cryptosporidium parvum by short-term in vitro culture assay.

Calls of active or inactive are those of the source. The calls are words filed in the database; no cut-off is given here.

One may read the IC50 as the concentration needed to halve the response being measured. High values mean weaker potency in that assay, low ones greater potency in that assay. As to `CCN(CC)c1c([N+](=O)[O-])cc(C(F)(F)F)c(N)c1[N+](=O)[O-]` [DINITRAMINE], the IC50 came out at 3.4 µM in the assay with Toxoplasma gondii [1]; 0.089 µM with Toxoplasma gondii [3]; 0.33 µM in the assay with Toxoplasma gondii [5]; 0.51 µM in the assay on Toxoplasma gondii [6]; 0.045 µM in the assay on Toxoplasma gondii [7]; 0.42 µM with Toxoplasma gondii [8]. The IC50 in the assay with Toxoplasma gondii [9] is 0.32 µM; in the assay with Toxoplasma gondii [10] it was 18.4 µM; in the assay on Toxoplasma gondii [11], 0.37 µM; in the assay with Toxoplasma gondii [12] it was 0.32 µM; in the assay on Toxoplasma gondii [13] it was 26.6 µM; in the assay with Toxoplasma gondii [14], 12.5 µM. The result in the assay with Toxoplasma gondii [2] and with Toxoplasma gondii [4] was Active.
Regarding `CCCN(CCC)c1c([N+](=O)[O-])cc(S(=O)(=O)Nc2ccccc2)cc1[N+](=O)[O-]`, the IC50 with Toxoplasma gondii [1] is 26.2 µM; in the assay with Toxoplasma gondii [3], 4.7 µM; with Toxoplasma gondii [5], 17 µM; with Toxoplasma gondii [6], 12.4 µM; in the assay with Toxoplasma gondii [7], 6.7 µM; in the assay with Toxoplasma gondii [8] it was 12.4 µM. In addition, the IC50 worked out at 16.9 µM in the assay on Toxoplasma gondii [9]; 13.3 µM in the assay on Toxoplasma gondii [10]; 17.2 µM in the assay with Toxoplasma gondii [11]; 7.7 µM in the assay on Toxoplasma gondii [12]; 17.1 µM with Toxoplasma gondii [13]; 9.7 µM in the assay on Toxoplasma gondii [14].
For the compound `CCCN(CC1CC1)c1c([N+](=O)[O-])cc(C(F)(F)F)cc1[N+](=O)[O-]` [PROFLURALIN], the half-maximal inhibitory concentration (IC50) came out at 8.2 µM in the assay with Toxoplasma gondii [1]; 1.9 µM in the assay with Cryptosporidium parvum; 1.5 µM in the assay with Toxoplasma gondii [3]; 3.2 µM in the assay on Toxoplasma gondii [5]; 2.8 µM in the assay with Toxoplasma gondii [6]; 0.61 µM in the assay with Toxoplasma gondii [7]. In addition, the IC50 came to 2.6 µM with Toxoplasma gondii [8]; 3.9 µM with Toxoplasma gondii [9]; 20.4 µM with Toxoplasma gondii [10]; 4.3 µM in the assay with Toxoplasma gondii [11]; 1.5 µM in the assay on Toxoplasma gondii [12]; 22.1 µM with Toxoplasma gondii [13]. For the same compound, the half-maximal inhibitory concentration (IC50) in the assay on Toxoplasma gondii [14] is 21.2 µM.
With `CCC(C)Nc1c([N+](=O)[O-])cc(C(C)(C)C)cc1[N+](=O)[O-]` (centres undefined) [BUTRALIN], the IC50 with Toxoplasma gondii [1] worked out at 32.1 µM; with Toxoplasma gondii [3], 3.8 µM; with Toxoplasma gondii [5] it was 12.8 µM; in the assay with Toxoplasma gondii [6], 10.2 µM; in the assay on Toxoplasma gondii [7], 1.8 µM; in the assay on Toxoplasma gondii [8] it was 4.5 µM. The IC50 in the assay with Toxoplasma gondii [9] is 7.4 µM; in the assay on Toxoplasma gondii [10], 25.1 µM; in the assay with Toxoplasma gondii [11], 24.2 µM; with Toxoplasma gondii [12], 9.1 µM; in the assay with Toxoplasma gondii [13], 28.7 µM; in the assay with Toxoplasma gondii [14], 32 µM.
Regarding `CCCN(CCCl)c1c([N+](=O)[O-])cc(C(F)(F)F)cc1[N+](=O)[O-]` [FLUCHLORALIN], the IC50 was 8 µM with Toxoplasma gondii [1]; 1.81 µM in the assay with Cryptosporidium parvum; 0.77 µM in the assay with Toxoplasma gondii [3]; 2.2 µM in the assay on Toxoplasma gondii [5]; 1.6 µM with Toxoplasma gondii [6]; 0.33 µM with Toxoplasma gondii [7]. The IC50 in the assay with Toxoplasma gondii [8] was determined as 1.9 µM; in the assay with Toxoplasma gondii [9] it was 2.1 µM; in the assay with Toxoplasma gondii [10], 17.7 µM; with Toxoplasma gondii [11], 3.2 µM; with Toxoplasma gondii [12], 1 µM; with Toxoplasma gondii [13] it was 20.5 µM. In the assay on Toxoplasma gondii [14], this compound gave an IC50 of 22.2 µM.
As for `CCCN(CCC)c1c([N+](=O)[O-])cc(C(C)C)cc1[N+](=O)[O-]` [ISOPROPALIN], the IC50 with Toxoplasma gondii [1] amounted to 7 µM; in the assay on Toxoplasma gondii [3], 2.2 µM; in the assay with Toxoplasma gondii [5] it was 4 µM; with Toxoplasma gondii [6] it was 3.4 µM; in the assay with Toxoplasma gondii [7], 0.88 µM; in the assay on Toxoplasma gondii [8], 2.2 µM. In addition, the IC50 in the assay with Toxoplasma gondii [9] amounted to 4.3 µM; in the assay on Toxoplasma gondii [10] it was 13.5 µM; in the assay with Toxoplasma gondii [11], 3.5 µM; in the assay with Toxoplasma gondii [12], 2.2 µM; with Toxoplasma gondii [13], 15 µM; in the assay on Toxoplasma gondii [14], 15 µM.
As to `COP(=S)(NC(C)C)Oc1ccc(C)cc1[N+](=O)[O-]` (centres undefined) [AMIPROPHOS METHYL], the IC50 was found to be 2.1 µM in the assay with Toxoplasma gondii [1]; 1.5 µM with Toxoplasma gondii [3]; 5.9 µM in the assay with Toxoplasma gondii [5]; 5.1 µM with Toxoplasma gondii [6]; 1 µM in the assay on Toxoplasma gondii [7]; 3.3 µM with Toxoplasma gondii [8]. In addition, the IC50 in the assay with Toxoplasma gondii [9] amounted to 7.1 µM; in the assay on Toxoplasma gondii [10], 19.1 µM; in the assay on Toxoplasma gondii [11], 10 µM; in the assay on Toxoplasma gondii [12], 3.9 µM; in the assay with Toxoplasma gondii [13] it was 28.5 µM; in the assay on Toxoplasma gondii [14], 28.5 µM.
With `CCCN(CCC)c1c([N+](=O)[O-])cc(S(N)(=O)=O)cc1[N+](=O)[O-]` [ORYZALIN], the IC50 worked out at 14.7 µM with Toxoplasma gondii [1]; 0.7 µM in the assay with Cryptosporidium parvum; 2.3 µM with Toxoplasma gondii [3]; 2.2 µM in the assay with Toxoplasma gondii [5]; 1.4 µM with Toxoplasma gondii [6]; 0.25 µM in the assay with Toxoplasma gondii [7]. The IC50 in the assay with Toxoplasma gondii [8] worked out at 1.5 µM; in the assay on Toxoplasma gondii [9], 5.5 µM; with Toxoplasma gondii [10], 16 µM; in the assay with Toxoplasma gondii [11], 1.26 µM; in the assay on Toxoplasma gondii [12] it was 1.6 µM; in the assay with Toxoplasma gondii [13], 25.3 µM. Moreover, the IC50 in the assay with Toxoplasma gondii [14] came out at 27.7 µM.
For the compound `CCC(CC)Nc1c([N+](=O)[O-])cc(C)c(C)c1[N+](=O)[O-]` [PENDIMETHALIN], the IC50 in the assay with Toxoplasma gondii [1] is 3.2 µM; with Cryptosporidium parvum, 0.19 µM; with Toxoplasma gondii [3], 0.34 µM; with Toxoplasma gondii [5], 1.1 µM; in the assay on Toxoplasma gondii [6], 2.5 µM; in the assay on Toxoplasma gondii [7], 0.26 µM. The concentration for half-maximal inhibition (IC50) in the assay with Toxoplasma gondii [8] was 0.75 µM; in the assay with Toxoplasma gondii [9], 0.71 µM; in the assay with Toxoplasma gondii [10] it was 9.7 µM; in the assay on Toxoplasma gondii [11] it was 3.2 µM; in the assay on Toxoplasma gondii [12], 1 µM; in the assay with Toxoplasma gondii [13], 12.2 µM. For the same compound, 13.2 µM corresponded to half-maximal inhibition in the assay with Toxoplasma gondii [14] (IC50).
As for `C=C(C)CN(CC)c1c([N+](=O)[O-])cc(C(F)(F)F)cc1[N+](=O)[O-]` [ETHALFLURALIN], the IC50 with Toxoplasma gondii [1] came to 13.5 µM; in the assay on Toxoplasma gondii [3], 0.65 µM; in the assay with Toxoplasma gondii [5], 1.6 µM; in the assay with Toxoplasma gondii [6], 4.2 µM; in the assay on Toxoplasma gondii [7] it was 0.26 µM; in the assay on Toxoplasma gondii [8] it was 2.5 µM. Further, the IC50 in the assay on Toxoplasma gondii [9] came to 1.7 µM; in the assay with Toxoplasma gondii [10], 19.5 µM; in the assay on Toxoplasma gondii [11], 2.1 µM; in the assay with Toxoplasma gondii [12], 1.4 µM; in the assay on Toxoplasma gondii [13], 28.7 µM; in the assay on Toxoplasma gondii [14], 24 µM.
Turning to `CCCN(CCC)c1c([N+](=O)[O-])cc(C(F)(F)F)cc1[N+](=O)[O-]` [TRIFLURALIN], the IC50 in the assay with Toxoplasma gondii [1] was determined as 13.8 µM; with Cryptosporidium parvum it was 1.94 µM; with Toxoplasma gondii [3] it was 1.8 µM; with Toxoplasma gondii [5], 4.1 µM; with Toxoplasma gondii [6] it was 5.3 µM; in the assay on Toxoplasma gondii [7], 0.52 µM. Moreover, the IC50 was 2.8 µM in the assay with Toxoplasma gondii [8]; 5.1 µM in the assay with Toxoplasma gondii [9]; 23.3 µM in the assay with Toxoplasma gondii [10]; 4.2 µM in the assay on Toxoplasma gondii [11]; 1.9 µM with Toxoplasma gondii [12]; 23.4 µM in the assay with Toxoplasma gondii [13]. The compound also came in with an IC50 in the assay on Toxoplasma gondii [14] of 27 µM.
`CCCN(CCC)c1c([N+](=O)[O-])cc(S(C)(=O)=O)cc1[N+](=O)[O-]` [NITRALIN]: the IC50 in the assay with Toxoplasma gondii [1] was 19.2 µM; with Cryptosporidium parvum it was 4.5 µM; with Toxoplasma gondii [3] it was 1.6 µM; in the assay on Toxoplasma gondii [5], 4.3 µM; with Toxoplasma gondii [6], 1.8 µM; with Toxoplasma gondii [7] it was 0.5 µM. For the same compound, the IC50 worked out at 2.1 µM with Toxoplasma gondii [8]; 4.9 µM with Toxoplasma gondii [9]; 23.9 µM with Toxoplasma gondii [10]; 3.7 µM in the assay on Toxoplasma gondii [11]; 2.1 µM in the assay with Toxoplasma gondii [12]; 30.3 µM in the assay with Toxoplasma gondii [13]. This compound gave an IC50 in the assay with Toxoplasma gondii [14] of 31.3 µM.
In the case of `CCCCN(CC)c1c([N+](=O)[O-])cc(C(F)(F)F)cc1[N+](=O)[O-]` [BENFLURALIN], the IC50 with Toxoplasma gondii [1] was 18.8 µM; in the assay on Toxoplasma gondii [3], 3.7 µM; in the assay on Toxoplasma gondii [5], 12 µM; in the assay with Toxoplasma gondii [6] it was 15.2 µM; with Toxoplasma gondii [7] it was 1.5 µM; in the assay on Toxoplasma gondii [8], 7.4 µM. Moreover, the half-maximal inhibitory concentration (IC50) with Toxoplasma gondii [9] worked out at 9.3 µM; in the assay on Toxoplasma gondii [10] it was 21.7 µM; with Toxoplasma gondii [11], 15.7 µM; in the assay on Toxoplasma gondii [12], 4.6 µM; with Toxoplasma gondii [13], 22.9 µM; in the assay with Toxoplasma gondii [14], 27.7 µM.
